Test results reported in BigSolDB 2.1.

Settings: in water

O=C(O)c1cc(O)c(O)c(O)c1
Settings	solubility (mole fraction)
298 K	0.00158
303 K	0.00176
308 K	0.00203
313 K	0.00248
318 K	0.00311
323 K	0.00433
328 K	0.00557
333 K	0.00712
338 K	0.00898
343 K	0.0126
